In ChEMBL document CHEMBL3045647, “Synthesis, anti-microbial evaluation, and molecular modeling of new pyrazolo[3,4-d]pyrimidine derivatives” (2012) one finds zone of inhibition data, which are given here for twelve molecules.

Common to all, as to format: functional
In assay [1] the test system is Escherichia coli. Description: Antibacterial activity against Escherichia coli O157:H7 isolated from poultry at 100 ug/ml after 24 hr by agar well diffusion method. The conditions noted are these: O157:H7, 24 h, read-out: IZ. (A growth-free zone around the sample is the usual read-out of agar diffusion tests.)
Assay [2] has as its system Pseudomonas aeruginosa. Nature of the assay: Antibacterial activity against Pseudomonas aeruginosa minced cow meet at 100 ug/ml after 24 hr by agar well diffusion method. The conditions noted are these: read-out: IZ.
Assay [3] deals with Candida albicans. Description: Antifungal activity against Candida albicans at 100 ug/ml after 48 to 72 hr by agar well diffusion method. Conditions: read-out: IZ.
Assay [4] concerns Bacillus cereus. Description: Antibacterial activity against Bacillus cereus at 100 ug/ml after 24 hr by agar well diffusion method. Conditions: read-out: IZ.
In assay [5] the test system is Listeria monocytogenes. Description: Antibacterial activity against Listeria monocytogenes isolated from mastitic cow milk at 100 ug/ml after 24 hr by agar well diffusion method. The conditions noted are these: read-out: IZ.
The test system of assay [6] is Staphylococcus aureus. Nature of the assay: Antibacterial activity against Staphylococcus aureus isolated from minced cow meet at 100 ug/ml after 24 hr by agar well diffusion method. Conditions: read-out: IZ.
The subject of assay [7] is Salmonella typhimurium. Nature of the assay: Antibacterial activity against Salmonella enterica subsp. enterica serovar Typhimurium isolated from mastitic cow milk at 100 ug/ml after 24 hr by agar well diffusion method. Conditions: read-out: IZ.
The test system of assay [8] is Aspergillus flavus. Description: Antifungal activity against Aspergillus flavus at 100 ug/ml after 48 to 72 hr by agar well diffusion method. The conditions noted are these: read-out: IZ.
Assay [9] concerns Aspergillus flavus. Description: Antifungal activity against Aspergillus flavus at 25 ug/ml after 48 to 72 hr by agar well diffusion method. Conditions: read-out: IZ.
Assay [10] relates to Candida albicans. Description: Antifungal activity against Candida albicans at 25 ug/ml after 48 to 72 hr by agar well diffusion method. The conditions noted are these: read-out: IZ.
For assay [11], the system named is Escherichia coli. Nature of the assay: Antibacterial activity against Escherichia coli O157:H7 isolated from poultry at 10 ug/ml after 24 hr by agar well diffusion method. Conditions: O157:H7, 24 h, read-out: IZ.
For assay [12], the system named is Bacillus cereus. Nature of the assay: Antibacterial activity against Bacillus cereus at 10 ug/ml after 24 hr by agar well diffusion method. The conditions noted are these: read-out: IZ.
Assay [13] has as its system Pseudomonas aeruginosa. Nature of the assay: Antibacterial activity against Pseudomonas aeruginosa minced cow meet at 10 ug/ml after 24 hr by agar well diffusion method. Conditions: read-out: IZ.
Assay [14] concerns Staphylococcus aureus. Nature of the assay: Antibacterial activity against Staphylococcus aureus minced cow meet at 10 ug/ml after 24 hr by agar well diffusion method. The conditions noted are these: read-out: IZ.
Assay [15] deals with Listeria monocytogenes. Nature of the assay: Antibacterial activity against Listeria monocytogenes isolated from mastitic cow milk at 10 ug/ml after 24 hr by agar well diffusion method. The conditions noted are these: read-out: IZ.
For assay [16], the system named is Salmonella typhimurium. Nature of the assay: Antibacterial activity against Salmonella enterica subsp. enterica serovar Typhimurium isolated from mastitic cow milk at 10 ug/ml after 24 hr by agar well diffusion method. The conditions noted are these: read-out: IZ.

Turning to `Cc1nn(-c2ccccc2)c2nc(-n3[nH]c(=O)c(C#N)c3-c3ccc(Cl)cc3)nc(-c3ccc(Cl)cc3)c12`, the zone of inhibition at 100 µg/mL in the assay with Escherichia coli [1] is 0 mm; in the assay on Pseudomonas aeruginosa [2] it was 14 mm; in the assay with Candida albicans [3], 24 mm; in the assay with Bacillus cereus [4] it was 24 mm; in the assay with Listeria monocytogenes [5], 29 mm; with Staphylococcus aureus [6] it was 0 mm. Further, the zone of inhibition at 100 µg/mL in the assay on Salmonella typhimurium [7] came out at 9 mm; in the assay with Aspergillus flavus [8], 12 mm.
For the molecule `Cc1nn(-c2ccccc2)c2nc(-n3[nH]c(=O)c(C#N)c3-c3cccs3)nc(-c3ccc(Cl)cc3)c12`, the zone of inhibition at 100 µg/mL with Escherichia coli [1] worked out at 0 mm; in the assay with Pseudomonas aeruginosa [2], 14 mm; in the assay on Candida albicans [3], 20 mm; with Bacillus cereus [4] it was 9 mm; with Listeria monocytogenes [5] it was 32 mm; in the assay with Staphylococcus aureus [6] it was 14 mm. Also, the zone of inhibition at 100 µg/mL in the assay with Salmonella typhimurium [7] is 10 mm; in the assay on Aspergillus flavus [8], 12 mm.
Consider `COc1ccc(C(=O)CSc2nc(-c3ccc(Cl)cc3)c3c(C)nn(-c4ccccc4)c3n2)cc1`, for which the zone of inhibition at 100 µg/mL was 16 mm with Escherichia coli [1]; 18 mm in the assay on Pseudomonas aeruginosa [2]; 26 mm in the assay with Candida albicans [3]; 18 mm in the assay on Bacillus cereus [4]; 14 mm in the assay with Listeria monocytogenes [5]; 16 mm in the assay with Staphylococcus aureus [6]. In addition, the zone of inhibition at 100 µg/mL with Salmonella typhimurium [7] worked out at 13 mm; in the assay on Aspergillus flavus [8], 12 mm.
As for `Cc1nn(-c2ccccc2)c2nc(NN)nc(-c3ccc(Cl)cc3)c12`, the zone of inhibition at 100 µg/mL was found to be 10 mm with Escherichia coli [1]; 16 mm in the assay on Pseudomonas aeruginosa [2]; 16 mm with Candida albicans [3]; 26 mm in the assay with Bacillus cereus [4]; 16 mm in the assay with Listeria monocytogenes [5]; 16 mm in the assay on Staphylococcus aureus [6]. In addition, the zone of inhibition at 100 µg/mL with Salmonella typhimurium [7] came to 13 mm; with Aspergillus flavus [8] it was 0 mm.
For `Cc1nn(-c2ccccc2)c2c1c(-c1ccc(Cl)cc1)nc1nncn12`, the zone of inhibition at 100 µg/mL worked out at 10 mm in the assay on Escherichia coli [1]; 12 mm with Pseudomonas aeruginosa [2]; 18 mm in the assay with Candida albicans [3]; 22 mm with Bacillus cereus [4]; 20 mm with Listeria monocytogenes [5]; 14 mm in the assay with Staphylococcus aureus [6]. In addition, the zone of inhibition at 100 µg/mL in the assay with Salmonella typhimurium [7] amounted to 13 mm; in the assay with Aspergillus flavus [8], 0 mm.
As to `Cc1nn(-c2ccccc2)c2nc(-n3nc(N)c(C#N)c3-c3ccc(Cl)cc3)nc(-c3ccc(Cl)cc3)c12`, the zone of inhibition at 100 µg/mL was 0 mm in the assay with Escherichia coli [1]; 9 mm in the assay with Pseudomonas aeruginosa [2]; 9 mm in the assay with Candida albicans [3]; 12 mm with Bacillus cereus [4]; 18 mm in the assay on Listeria monocytogenes [5]; 12 mm in the assay on Staphylococcus aureus [6]. The zone of inhibition at 100 µg/mL amounted to 9 mm in the assay with Salmonella typhimurium [7] and 0 mm with Aspergillus flavus [8].
With `Cc1nn(-c2ccccc2)c2c1C(c1ccc(Cl)cc1)n1c(s/c(=C\c3ccc(C#N)cc3)c1=O)=N2` (stereo not drawn), the zone of inhibition at 100 µg/mL with Escherichia coli [1] worked out at 18 mm; in the assay with Pseudomonas aeruginosa [2] it was 18 mm; with Candida albicans [3] it was 9 mm; with Bacillus cereus [4], 22 mm; in the assay on Listeria monocytogenes [5], 20 mm; with Staphylococcus aureus [6] it was 28 mm. Besides, the zone of inhibition at 100 µg/mL in the assay on Salmonella typhimurium [7] was 15 mm; in the assay on Aspergillus flavus [8], 8 mm.
As to `Cc1nn(-c2ccccc2)c2nc(SCC(=O)Cl)nc(-c3ccc(Cl)cc3)c12`, the zone of inhibition at 100 µg/mL in the assay with Escherichia coli [1] came out at 9 mm; in the assay on Pseudomonas aeruginosa [2], 22 mm; in the assay with Candida albicans [3] it was 8 mm; in the assay on Bacillus cereus [4] it was 10 mm; with Listeria monocytogenes [5], 29 mm; in the assay with Staphylococcus aureus [6] it was 14 mm. Besides, the values for the zone of inhibition at 100 µg/mL in the assay with Salmonella typhimurium [7] and in the assay on Aspergillus flavus [8] were 11 mm and 9 mm, respectively.
Turning to `Cc1nn(-c2ccccc2)c2nc(S)nc(-c3ccc(Cl)cc3)c12`, the zone of inhibition at 100 µg/mL with Escherichia coli [1] is 0 mm; in the assay on Pseudomonas aeruginosa [2], 24 mm; in the assay with Candida albicans [3], 29 mm; in the assay on Bacillus cereus [4], 22 mm; in the assay on Listeria monocytogenes [5], 24 mm; with Staphylococcus aureus [6] it was 18 mm. Moreover, the zone of inhibition at 100 µg/mL was found to be 12 mm in the assay with Salmonella typhimurium [7] and 0 mm in the assay with Aspergillus flavus [8].
As for `Cc1nn(-c2ccccc2)c2nc(S)nc(-c3cccs3)c12`, the zone of inhibition at 100 µg/mL in the assay on Escherichia coli [1] was 14 mm; with Pseudomonas aeruginosa [2] it was 16 mm; in the assay with Candida albicans [3], 10 mm; in the assay on Bacillus cereus [4] it was 18 mm; in the assay on Listeria monocytogenes [5], 16 mm; with Staphylococcus aureus [6] it was 14 mm. Further, the zone of inhibition at 100 µg/mL in the assay with Salmonella typhimurium [7] was 14 mm; in the assay with Aspergillus flavus [8] it was 10 mm.
On to `OC(Cn1cncn1)(Cn1cncn1)c1ccc(F)cc1F` [FLUCONAZOLE], for which the zone of inhibition at 25 µg/mL amounted to 16 mm in the assay with Aspergillus flavus [9] and 17 mm in the assay with Candida albicans [10].
Turning to `NC[C@H]1O[C@H](O[C@H]2[C@H](O)[C@@H](O[C@H]3O[C@H](CO)[C@@H](O)[C@H](N)[C@H]3O)[C@H](N)C[C@@H]2N)[C@H](N)C[C@@H]1O` [TOBRAMYCIN], the zone of inhibition at 10 µg/mL is 20 mm in the assay with Escherichia coli [11]; 19 mm with Bacillus cereus [12]; 18 mm in the assay with Pseudomonas aeruginosa [13]; 19 mm in the assay on Staphylococcus aureus [14]; 20 mm in the assay on Listeria monocytogenes [15]; 18 mm with Salmonella typhimurium [16].
